{
  "source": "patent US8288390B2",
  "about": "“Benzofuran derivatives” (Takeda Pharmaceutical Company Limited, priority 2009, dated 2012)",
  "data": [
    {"smiles": "Cc1c(C)c(N2CCN(c3ccnc(Cl)n3)CC2)c(C)c2c1OC(C)(C)C2", "note": "[Example 82, 2-Chloro-4-[4-(2,2,4,6,7-pentamethyl-2,3-dihydro-1-benzofuran-5-yl)piperazin-1-yl]pyrimidine]", "values": [
      {"measurement": "melting point", "result": "192 to 193", "unit": "°C"}
    ]}
  ]
}
